For one experiment, the system named is A98G/F227C mutant. Kind of experiment: Susceptibility of SDM derived DOR-resistant mutant to NRTIs, Example 1. The conditions noted are these: for EC50: Human immunodeficiency virus 1, read-out: Antiviral Potency (nM). Type of experiment: cell-based, HIV-1. From the text:
(§1) Common doravirine-associated mutants containing F227C substitution were derived from SDM.

The test system of the next experiment is V106M/F227C mutant. The description is as above. Type of experiment: cell-based, HIV-1. The following applies: for EC50: Human immunodeficiency virus 1, read-out: Antiviral Potency.
Source text: as §1

For a further experiment, the system named is V106I/F227C/H221Y mutant. Described as above. It is filed as cell-based, HIV-1. The conditions noted are these: for EC50: Human immunodeficiency virus 1, read-out: Antiviral Potency.
Source text: as §1

The test system of another experiment is V106I/F227C mutant. The description is as above. The following applies: for EC50: Human immunodeficiency virus 1, read-out: Antiviral Potency. Type of experiment: cell-based, HIV-1. The protocol: (§2) Common doravirine-associated mutants containing F227C substitution were derived from SDM. The experimental conditions for susceptibility evaluation are described in Lai, Ming-Tain, et al., In Vitro Characterization of MK-1439, a Novel HIV-1 Nonnucleoside Reverse Transcriptase Inhibitor. Antimicrobial Agents and Chemotherapy 58(3): 1652-1663, 2014. These mutants conferred more than 100-fold of resistance to DOR. The susceptibility of the mutants to EFdA and 3TC was also evaluated under the same conditions. […] In contrast, the mutants are hypersusceptible to EFdA with 2-5 fold increase in susceptibility with all mutants except the quardruple mutant.

The subject of a further experiment is F227C mutant. The description is as above. The following applies: for EC50: Human immunodeficiency virus 1, read-out: Antiviral Potency. Type of experiment: cell-based, HIV-1. The protocol:
as §2

Experiment [1] has as its system A98G/V106I/H221Y/F227C mutant. Described as above. It is filed as cell-based, HIV-1. The conditions noted are these: for EC50: Human immunodeficiency virus 1, read-out: Antiviral Potency. The protocol:
as §2

For the next experiment, the system named is WT virus. Kind of experiment: Susceptibility of virus to NRTIs (antiviral potency), Example 1. It is filed as cell-based, HIV-1. The following applies: for EC50: Human immunodeficiency virus 1. The protocol:
as §2

The subject of experiment [2] is Y181C mutant virus. Kind of experiment: Suppression of virus replication in vitro in 100% normal human serum; inhibitory quotient. Type of experiment: cell-based, HIV-1. The conditions noted are these: ratio of clinical trough concentration over antiviral EC50. The protocol:
(§3) In addition, the susceptibility of a broader array of clinical-NNRTI-associated mutant viruses (a total of 96 viruses) to doravirine and other benchmark NNRTIs was investigated. […] See Lai, Ming-Tain, et al., In Vitro Characterization of MK-1439, a Novel HIV-1 Nonnucleoside Reverse Transcriptase Inhibitor. Antimicrobial Agents and Chemotherapy 58(3): 1652-1663, 2014.
(§4) Inhibitory quotients (IQs) were calculated by determining the ratio of the clinical trough concentration over the antiviral EC50 of various viruses. IQs have been employed to predict the potential efficacy of anti-viral agents.

In experiment [3] the test system is K103N mutant virus. The experiment is described as above. It is filed as cell-based, HIV-1. The following applies: ratio of clinical trough concentration over antiviral EC50. The protocol:
as §3, §4

Experiment [4] relates to K103N/Y181C mutant virus. The experiment is described as above. It is filed as cell-based, HIV-1. The following applies: ratio of clinical trough concentration over antiviral EC50. The protocol: as §3, §4
Experiment [5] concerns Y181C mutant virus. The following applies: 100% normal human serum (NHS), read-out: EC50 suppressing replication; cited from earlier work.
Experiment [6] has as its system other prevalent NNRTI-associated mutants. Briefly: Inhibitory quotients against other NNRTI-associated mutants. Type of experiment: cell-based, HIV-1. The conditions noted are these: with the exception of Y188L. The protocol: as §4
Experiment [7] has as its system K103N mutant virus. The conditions noted are these: 100% normal human serum (NHS), read-out: EC50 suppressing replication; cited from earlier work.
For experiment [8], the system named is HIV-1. The conditions noted are these: escalating concentrations of DOR; cited from earlier work.
Experiment [9] deals with K103N/Y181C mutant virus. The following applies: 100% normal human serum (NHS), read-out: EC50 suppressing replication; cited from earlier work.
Experiment [10] relates to clinical-NNRTI-associated mutant viruses (a total of 96 viruses). The following applies: 96 clinical NNRTI-associated mutant viruses; cited from earlier work.
The subject of a further experiment is wild type (WT) virus. The conditions noted are these: 100% normal human serum (NHS), read-out: EC50 suppressing replication; cited from earlier work.
The next experiment deals with HIV. The conditions noted are these: compared with EFddA lacking a 3′-OH; cited from earlier work.
The test system of experiment [11] is HIV-1. Kind of experiment: Proof of concept study in HIV-1 infected patients. It is filed as in vivo, human. The conditions noted are these: single dose as low as 0.5 mg. The protocol: EFdA was tested in HIV-1 infected patients for a proof of concept study.
The subject of experiment [12] is Common doravirine-associated mutants containing F227C substitution. Briefly: Susceptibility of the SDM derived doravirine-associated mutants as a group. It is filed as cell-based, HIV-1. The protocol:
Site-directed mutagenesis (SDMs) were generated for the substitutions V1061/F227C, V1061/H221Y/F227C, A98G/V1061/H221Y/F227C, and V106M/F227C and their susceptibility to NNRTIs was evaluated. Most of the mutants conferred a high level of resistance to DOR with a fold change (FC)>100 (FC: mutantEC50 versus WTEC50).
FIG. 1. Susceptibility of SDM derived DOR-resistant clinical mutants to NRTIs. […] In contrast, the mutants are hypersusceptible to EFdA with 2-5 fold increase in susceptibility except the quardruple mutant.
as §2

For `Nc1ccn([C@@H]2CS[C@H](CO)O2)c(=O)n1` [3TC, lamivudine, reference compound], the EC50 with A98G/F227C mutant was 809 ± 146 nM; in the experiment with V106M/F227C mutant, 771 ± 62 nM; in the experiment on V106I/F227C/H221Y mutant it was 758 ± 244 nM; in the experiment on V106I/F227C mutant, 692 ± 212 nM; with F227C mutant, 1360 ± 94 nM; in [1], 1160 ± 314 nM. This compound registered an EC50 in the experiment on WT virus of 601 ± 142 nM. Besides, the “Fold-change (EC50mut/WT EC50wt)” value in the experiment on V106I/F227C mutant is 1.15; with F227C mutant, 2.26; in experiment [1], 1.93; in the experiment with WT virus it was 1.0.

For the compound `Cn1c(Cn2ccc(C(F)(F)F)c(Oc3cc(Cl)cc(C#N)c3)c2=O)n[nH]c1=O` [Doravirine], the “Inhibitory quotient (IQ)” value is 27 in the experiment with Y181C mutant virus [2], 39 in the experiment on K103N mutant virus [3] and 25 with K103N/Y181C mutant virus [4]. Also, the EC50 is 31 nM in the experiment with Y181C mutant virus [5], 21 nM with K103N mutant virus [7], 33 nM with K103N/Y181C mutant virus [9] and 12 nM with wild type (WT) virus. For the same compound, the “IQ values compared with RPV and EFV” value in experiment [6] was “higher IQ values than RPV and EFV”. For the same compound, the “mutations emerging in resistance selection” value in the experiment on HIV-1 [8] was “V106A mutant led two mutation pathways, followed by the emergence of F227L and L234I substitutions”. Further, the “mutant profile versus benchmark NNRTIs” value in experiment [10] was “superior overall to that of efavirenz (EFV) and comparable to that of etravirine (ETR) and rilpivirine (RPV)”.

For the compound `O=C1Nc2ccc(Cl)cc2[C@@](C#CC2CC2)(C(F)(F)F)O1` [EFV, efavirenz], the “Inhibitory quotient (IQ)” value in the experiment with Y181C mutant virus [2] is 60; in the experiment with K103N mutant virus [3], 2.5; in the experiment on K103N/Y181C mutant virus [4], 1.9.

Consider `C#C[C@]1(CO)O[C@@H](n2cnc3c(N)nc(F)nc32)C[C@@H]1O` [EFdA, 4′-ethynyl-2-fluoro-2′-deoxyadenosine], for which the “Fold-change (EC50mut/WT EC50wt)” value is 0.18 in the experiment with A98G/F227C mutant (A98G/F227C); 0.37 in the experiment with V106M/F227C mutant; 0.49 in the experiment with V106I/F227C/H221Y mutant; 0.44 in the experiment with V106I/F227C mutant; 0.18 with F227C mutant; 1.00 in [1]. Besides, the “Fold-change (EC50mut/WT EC50wt)” value in the experiment with WT virus came out at 1.0. Moreover, the EC50 is 0.15 ± 0.026 nM in the experiment with A98G/F227C mutant; 0.3 ± 0.048 nM with V106M/F227C mutant; 0.4 ± 0.075 nM in the experiment on V106I/F227C/H221Y mutant; 0.35 ± 0.048 nM with V106I/F227C mutant; 0.15 ± 0.026 nM with F227C mutant; 0.81 ± 0.124 nM in experiment [1]. For the same compound, in the experiment with WT virus, the EC50 was 0.81 ± 0.029 nM. The “antiviral activity relative to EFddA” value in the experiment on HIV is given as 10,000 times. Moreover, the “duration of suppression of HIV replication” value in the experiment with HIV-1 [11] is listed as “at least seven days”. Further, in experiment [12] (mutants containing F227C substitution), the “susceptibility / potency of mutants compared with WT virus” value was “better potency compared to WT virus”. In addition, in experiment [12] ({}), the “fold increase in susceptibility (hypersusceptible)” value was 2-5 fold.

Turning to `Cc1cc(/C=C/C#N)cc(C)c1Nc1ccnc(Nc2ccc(C#N)cc2)n1` [RPV, rilpivirine], the “Inhibitory quotient (IQ)” value in the experiment on Y181C mutant virus [2] was determined as 1.4; in the experiment with K103N mutant virus [3], 4.6; with K103N/Y181C mutant virus [4] it was 0.8.

The values are drawn from patent US12005072B2, “HIV drug combination for increasing barrier against resistance” (Merck Sharp & Dohme LLC, priority 2018, dated 2024).
